Here are results for ten molecules from article PMC10967448 (Antibiotics, 2024).

pKd: −log10 of the molar value. ≈ marks a conversion by molar mass, not a printed value. Like-named read-outs stand apart in the source and are kept apart here. Square brackets hold non-standard residues; d marks the D form. Peptide text beside a SMILES is read from it. Aib = CC(C)(N)C(=O)O Bounds are passed on as bounds.

The target in assay [1] is ClpC (Mycolicibacterium smegmatis, UniProt A0R574). Nature of the assay: biochemical. It is filed as binding, Mycobacterium smegmatis.
ClpC, sequence (A0R574 whole entry): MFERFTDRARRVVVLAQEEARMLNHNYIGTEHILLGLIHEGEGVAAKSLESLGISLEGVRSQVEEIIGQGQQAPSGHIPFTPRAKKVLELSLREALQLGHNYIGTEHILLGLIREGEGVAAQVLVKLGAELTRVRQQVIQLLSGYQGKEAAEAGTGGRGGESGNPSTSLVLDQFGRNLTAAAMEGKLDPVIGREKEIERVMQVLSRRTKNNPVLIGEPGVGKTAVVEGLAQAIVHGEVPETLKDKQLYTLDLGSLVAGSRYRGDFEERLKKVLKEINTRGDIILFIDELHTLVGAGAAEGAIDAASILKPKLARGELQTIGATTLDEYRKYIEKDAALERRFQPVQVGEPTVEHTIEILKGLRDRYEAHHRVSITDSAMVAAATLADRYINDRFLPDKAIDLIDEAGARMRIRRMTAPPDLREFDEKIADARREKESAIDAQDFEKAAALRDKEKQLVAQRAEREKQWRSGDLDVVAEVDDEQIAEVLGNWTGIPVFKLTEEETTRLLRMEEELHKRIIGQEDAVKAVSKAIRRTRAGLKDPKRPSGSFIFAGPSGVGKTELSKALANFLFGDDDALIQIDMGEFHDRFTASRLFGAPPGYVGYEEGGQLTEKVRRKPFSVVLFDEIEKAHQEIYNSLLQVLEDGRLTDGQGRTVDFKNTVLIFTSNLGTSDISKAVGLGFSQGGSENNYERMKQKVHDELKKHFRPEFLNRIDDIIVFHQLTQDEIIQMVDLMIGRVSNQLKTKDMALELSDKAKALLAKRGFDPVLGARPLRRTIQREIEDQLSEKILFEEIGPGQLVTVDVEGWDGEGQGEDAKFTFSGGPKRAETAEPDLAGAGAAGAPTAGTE
Text: (§1) All the binding data were double-referenced by blank cycle and reference flow cell subtraction. The resulting data fit a 1:1 Langmuir binding model using Biacore Insight Evaluation Software 4.0 (GE Healthcare).
Assay [2] has as its target ClpC (S437P) (Mycolicibacterium smegmatis, UniProt A0R574, S437P). Nature of the assay: biochemical. Format: binding, Mycobacterium smegmatis.
Text: as §1
Assay [3] relates to M. smegmatis.
Assay [4] concerns M. smegmatis. This is another data set of the same source.
Assay [5] has as its system ClpCP1P2. Particulars: 10 μM COG1410; 1 μM ClpC, 2 μM ClpP1 and ClpP2, 100 μM ATP, 1 μM FITC-casein, 1 h, 37 °C, pH 7.5.
Assay [6] deals with pandrug-resistant Acinetobacter baumannii. Further details: method as in PMID 36081797. The conditions noted are these: cited from earlier work.
Setting [7] is: […], Tables 2 and 3 print no unit (text b20 uses μg/mL), micro-dilution, 37 °C, 48 h.
Where [8] appears, read: […], Tables 2 and 3 print no unit, micro-dilution, 37 °C, 48 h.
Setting [9] is: strain clpC (KD), Tables 2 and 3 print no unit, micro-dilution, 37 °C, 48 h.

ClpC (S437P), sequence (A0R574 whole entry S437P, looked up): as the sequence (A0R574 whole entry) above, with S437P counted along it

For orientation: pKd means −log10 of the Kd, conventionally taken in molar units. A higher pKd goes with a small Kd. Broadly, the MBC is the lowest tested concentration that kills the bacteria rather than only halting them. `CC(=O)N[C@@H](C)C(=O)N[C@@H](CO)C(=O)NC(C)(C)C(=O)N[C@@H](CC(C)C)C(=O)N[C@@H](CCCNC(=N)N)C(=O)N[C@@H](CCCCN)C(=O)N[C@@H](CC(C)C)C(=O)NC(C)(C)C(=O)N[C@@H](CCCCN)C(=O)N[C@@H](CCCNC(=N)N)C(=O)N[C@@H](CC(C)C)C(=O)N[C@@H](CC(C)C)C(N)=O` [COG1410] (Ac-AS[Aib]LRKL[Aib]KRLL-NH2): the figures for the pKd in assay [1] and in assay [2] were 5.69 and 5.88, respectively. The kon in assay [1] (pH 7.4, read-out: association constant (ka)) amounted to 5780 M⁻¹ s⁻¹; in assay [2] (pH 7.4, read-out: ka), 9900 M⁻¹ s⁻¹. Further, the MIC in assay [3] (strain 35g/pSMT3-ClpC (S437P), micro-dilution, 37 °C, 48 h, triplicate) is reported as 256 µg/mL (≈ 182 µM); in assay [3] (strain WT/pSMT3-ClpC (overexpression), micro-dilution, 37 °C, 48 h, triplicate), 16 µg/mL (≈ 11.4 µM); in assay [3] (strain clpC (KD), knockdown, micro-dilution, 37 °C, 48 h, triplicate), greater than 256 µg/mL; in assay [3] (strain clpC (KD)/pSMT3-ClpC (S437P), micro-dilution, 37 °C, 48 h, triplicate) it was greater than 256 µg/mL. For the same molecule, the MBC was greater than 256 µg/mL in assay [4] (strain 35g/pSMT3-ClpC (S437P)); greater than 256 µg/mL in assay [4] (strain clpC (KD), knockdown); greater than 256 µg/mL in assay [4] (strain clpC (KD)/pSMT3-ClpC (S437P)).
Turning to `NCC[C@H](O)C(=O)N[C@@H]1C[C@H](N)[C@@H](O[C@H]2O[C@H](CN)[C@@H](O)[C@H](O)[C@H]2O)[C@H](O)[C@H]1O[C@H]1O[C@H](CO)[C@@H](O)[C@H](N)[C@H]1O` [amikacin], the results for the MIC in assay [3] (setting [7]), in assay [3] (setting [8]) and in assay [3] (setting [9]) were 0.5, 0.5 µg/mL (≈ 0.854 µM) and 0.5 µg/mL (≈ 0.854 µM), respectively.
With `CC[C@H]1OC(=O)[C@H](C)[C@@H](O[C@H]2C[C@@](C)(OC)[C@@H](O)[C@H](C)O2)[C@H](C)[C@@H](O[C@@H]2O[C@H](C)C[C@H](N(C)C)[C@H]2O)[C@](C)(O)C[C@@H](C)CN(C)[C@H](C)[C@@H](O)[C@]1(C)O` [azithromycin], the MIC came to 2 in assay [3] (setting [7]), 2 µg/mL (≈ 2.67 µM) in assay [3] (setting [8]) and 2 µg/mL (≈ 2.67 µM) in assay [3] (setting [9]).
In the case of `CO[C@@]1(NC(=O)Cc2cccs2)C(=O)N2C(C(=O)O)=C(COC(N)=O)CS[C@@H]21` [cefoxitin], the MIC was found to be 16 in assay [3] (setting [7]), 16 µg/mL (≈ 37.4 µM) in assay [3] (setting [8]) and 16 µg/mL (≈ 37.4 µM) in assay [3] (setting [9]).
For `CC(=O)NC[C@H]1CN(c2ccc(N3CCOCC3)c(F)c2)C(=O)O1` [linezolid], the MIC in assay [3] (setting [7]) came out at 1; in assay [3] (setting [8]) it was 1 µg/mL (≈ 2.96 µM); in assay [3] (setting [9]) it was 1 µg/mL (≈ 2.96 µM).
Take IRMRIRVLL [antiTB_1080]: the MIC in assay [3] (setting [7]) is 32; in assay [3] (setting [8]), 128 µg/mL; in assay [3] (setting [9]) it was greater than 256 µg/mL.
Regarding LRKLRKRLVRLASHLRKLRKRLL [ApoE23], the MIC in assay [3] was 128 µg/mL; in assay [3] (setting [7]), 128; in assay [3] (setting [8]), greater than 128 µg/mL; in assay [3] (setting [9]), greater than 128 µg/mL. Also, the “increase in proteolytic activity, ClpCP1P2 system” value in assay [5] is on record as “substantial increase in proteolytic activity”.
For LRVRLASHLRKLRKRLL [COG133], the anti-mycobacterial activity result in assay [3] (M. smegmatis, result in words) is on record as “did not demonstrate anti-mycobacterial activity”. For the same molecule, the figures for the MIC in assay [3] (setting [7]), in assay [3] (setting [8]) and in assay [3] (setting [9]) were greater than 256, greater than 256 µg/mL and greater than 256 µg/mL, respectively. In assay [5], the “increase in proteolytic activity, ClpCP1P2 system” value is given as “no influence on proteolytic activity”.
Turning to WKWLKKWIK [antiTB_1026], the MIC is 32 in assay [3] (setting [7]), 256 µg/mL in assay [3] (setting [8]) and greater than 256 µg/mL in assay [3] (setting [9]).
For polymyxin B, in assay [6], the “fold increase of MIC after 55 passages in the presence of sub-MIC agent” value is recorded as 64 fold.
